Data reported in PubChem BioAssay (NCI).
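Growth conditions: 96-well plates. Treatment: test compound, 48 hours, 5 concentrations. Analysis: linear interpolation between bracketing concentrations; unreached endpoints set to highest concentration. At the GI50, growth is halved. TGI: total growth inhibition.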

How the values were obtained:
Assay in all cases: NCI tumour cell line growth inhibition, 48 h
COLO 205 colon = system: COLO 205 colon
CAKI-1 renal = system: CAKI-1 renal
OVCAR-5 ovarian = system: OVCAR-5 ovarian
SR leukemia = system: SR leukemia
ACHN renal = system: ACHN renal
SF-539 CNS = system: SF-539 CNS
SK-MEL-5 melanoma = system: SK-MEL-5 melanoma
CCRF-CEM leukemia = system: CCRF-CEM leukemia
EKVX NSCLC = system: EKVX NSCLC
HL-60(TB) leukemia = system: HL-60(TB) leukemia
HT29 colon = system: HT29 colon
HOP-62 NSCLC = system: HOP-62 NSCLC
RPMI-8226 leukemia = system: RPMI-8226 leukemia
UACC-62 melanoma = system: UACC-62 melanoma
OVCAR-4 ovarian = system: OVCAR-4 ovarian
IGROV1 ovarian = system: IGROV1 ovarian
LOX IMVI melanoma = system: LOX IMVI melanoma
SNB-19 CNS = system: SNB-19 CNS
SNB-75 CNS = system: SNB-75 CNS
A498 renal = system: A498 renal
SN12C renal = system: SN12C renal
SF-295 CNS = system: SF-295 CNS
DLD-1 colon = system: DLD-1 colon
KM12 colon = system: KM12 colon
TK-10 renal = system: TK-10 renal
UACC-257 melanoma = system: UACC-257 melanoma
MOLT-4 leukemia = system: MOLT-4 leukemia
KM20L2 colon = system: KM20L2 colon
NCI-H23 lung = system: NCI-H23 lung
HOP-92 NSCLC = system: HOP-92 NSCLC
NCI-H226 lung = system: NCI-H226 lung
SW-620 colon = system: SW-620 colon
K-562 leukemia = system: K-562 leukemia
OVCAR-8 ovarian = system: OVCAR-8 ovarian
A549 NSCLC = system: A549 NSCLC
UO-31 renal = system: UO-31 renal
NCI-H522 lung = system: NCI-H522 lung
LXFL 529 NSCLC = system: LXFL 529 NSCLC
SK-OV-3 ovarian = system: SK-OV-3 ovarian
HCT-116 colon = system: HCT-116 colon
786-0 renal = system: 786-0 renal
MALME-3M melanoma = system: MALME-3M melanoma
HCT-15 colon = system: HCT-15 colon
SK-MEL-2 melanoma = system: SK-MEL-2 melanoma
DMS 273 small cell lung = system: DMS 273 small cell lung
SF-268 CNS = system: SF-268 CNS
OVCAR-3 ovarian = system: OVCAR-3 ovarian
NCI-H460 lung = system: NCI-H460 lung
HCC-2998 colon = system: HCC-2998 colon
SNB-78 CNS = system: SNB-78 CNS
U251 CNS = system: U251 CNS
SK-MEL-28 melanoma = system: SK-MEL-28 melanoma
M14 melanoma = system: M14 melanoma

`COC(=O)/C(=N\NC(C)(C)C)C(C(=O)C(=O)Nc1cc(C)ccc1C)c1nc2ccccc2[nH]c1=O` (centres undefined) was tested, and the TGI (COLO 205 colon) was > 100 µM, the TGI (CAKI-1 renal) was > 100 µM and the TGI (OVCAR-5 ovarian) was > 100 µM. The TGI (SR leukemia) was > 100 µM, the TGI (ACHN renal) was > 100 µM and the TGI (SF-539 CNS) was > 100 µM. The TGI (SK-MEL-5 melanoma) was > 100 µM, the TGI (CCRF-CEM leukemia) was > 100 µM and the TGI (EKVX NSCLC) was > 100 µM. The TGI (HL-60(TB) leukemia) was > 100 µM, the TGI (HT29 colon) was > 100 µM and the TGI (HOP-62 NSCLC) was > 100 µM. For the same compound, the TGI (RPMI-8226 leukemia) was > 100 µM, the TGI (UACC-62 melanoma) was > 100 µM and the TGI (OVCAR-4 ovarian) was > 100 µM. The TGI (IGROV1 ovarian) was > 100 µM, the TGI (LOX IMVI melanoma) was > 100 µM and the TGI (SNB-19 CNS) was > 100 µM. For the same compound, the TGI (SNB-75 CNS) was > 100 µM, the TGI (A498 renal) was > 100 µM and the TGI (SN12C renal) was > 100 µM. For the same compound, the TGI (SF-295 CNS) was > 100 µM, the TGI (DLD-1 colon) was > 100 µM and the TGI (KM12 colon) was > 100 µM. For the same compound, the TGI (TK-10 renal) was > 100 µM, the TGI (UACC-257 melanoma) was > 100 µM and the TGI (MOLT-4 leukemia) was > 100 µM. For the same compound, the TGI (KM20L2 colon) was > 100 µM, the TGI (NCI-H23 lung) was > 100 µM and the TGI (HOP-92 NSCLC) was > 100 µM. The TGI (NCI-H226 lung) was > 100 µM, the TGI (SW-620 colon) was > 100 µM and the TGI (K-562 leukemia) was > 100 µM. The TGI (OVCAR-8 ovarian) was > 100 µM.
For `N.N.N.N.O=C([O-])C(Cl)Cl.O=C([O-])C(Cl)Cl.[Co+3].[O-][Cl+3]([O-])([O-])[O-]`, the GI50 (COLO 205 colon) was > 100 µM, the TGI (COLO 205 colon) was > 100 µM and the GI50 (A549 NSCLC) was > 100 µM. The TGI (A549 NSCLC) was > 100 µM, the GI50 (UO-31 renal) was > 100 µM and the TGI (UO-31 renal) was > 100 µM. The GI50 (NCI-H522 lung) was > 100 µM, the TGI (NCI-H522 lung) was > 100 µM and the GI50 (LXFL 529 NSCLC) was > 100 µM. The TGI (LXFL 529 NSCLC) was > 100 µM, the GI50 (SK-OV-3 ovarian) was > 100 µM and the TGI (SK-OV-3 ovarian) was > 100 µM. The GI50 (HCT-116 colon) was > 100 µM, the TGI (HCT-116 colon) was > 100 µM and the GI50 (OVCAR-5 ovarian) was > 100 µM. The TGI (OVCAR-5 ovarian) was > 100 µM, the GI50 (786-0 renal) was > 100 µM and the TGI (786-0 renal) was > 100 µM. The GI50 (ACHN renal) was > 100 µM, the TGI (ACHN renal) was > 100 µM and the GI50 (MALME-3M melanoma) was > 100 µM. For the same compound, the TGI (MALME-3M melanoma) was > 100 µM, the GI50 (SF-539 CNS) was > 100 µM and the TGI (SF-539 CNS) was > 100 µM. For the same compound, the GI50 (SK-MEL-5 melanoma) was > 100 µM, the TGI (SK-MEL-5 melanoma) was > 100 µM and the GI50 (CCRF-CEM leukemia) was > 100 µM. The TGI (CCRF-CEM leukemia) was > 100 µM, the GI50 (EKVX NSCLC) was > 100 µM and the TGI (EKVX NSCLC) was > 100 µM. The GI50 (HL-60(TB) leukemia) was > 100 µM, the TGI (HL-60(TB) leukemia) was > 100 µM and the GI50 (HCT-15 colon) was > 100 µM. The TGI (HCT-15 colon) was > 100 µM, the GI50 (HT29 colon) was > 100 µM and the TGI (HT29 colon) was > 100 µM. For the same compound, the GI50 (HOP-62 NSCLC) was > 100 µM, the TGI (HOP-62 NSCLC) was > 100 µM and the GI50 (RPMI-8226 leukemia) was > 100 µM. For the same compound, the TGI (RPMI-8226 leukemia) was > 100 µM, the GI50 (UACC-62 melanoma) was > 100 µM and the TGI (UACC-62 melanoma) was > 100 µM. For the same compound, the GI50 (SK-MEL-2 melanoma) was > 100 µM, the TGI (SK-MEL-2 melanoma) was > 100 µM and the GI50 (DMS 273 small cell lung) was > 100 µM. For the same compound, the TGI (DMS 273 small cell lung) was > 100 µM, the GI50 (OVCAR-4 ovarian) was > 100 µM and the TGI (OVCAR-4 ovarian) was > 100 µM. The GI50 (IGROV1 ovarian) was > 100 µM, the TGI (IGROV1 ovarian) was > 100 µM and the GI50 (LOX IMVI melanoma) was > 100 µM. The TGI (LOX IMVI melanoma) was > 100 µM, the GI50 (SNB-19 CNS) was > 100 µM and the TGI (SNB-19 CNS) was > 100 µM. The GI50 (SF-268 CNS) was > 100 µM, the TGI (SF-268 CNS) was > 100 µM and the GI50 (OVCAR-3 ovarian) was > 100 µM. For the same compound, the TGI (OVCAR-3 ovarian) was > 100 µM, the GI50 (NCI-H460 lung) was > 100 µM and the TGI (NCI-H460 lung) was > 100 µM. For the same compound, the GI50 (SNB-75 CNS) was > 100 µM, the TGI (SNB-75 CNS) was > 100 µM and the GI50 (A498 renal) was > 100 µM. For the same compound, the TGI (A498 renal) was > 100 µM, the GI50 (HCC-2998 colon) was > 100 µM and the TGI (HCC-2998 colon) was > 100 µM. The GI50 (SN12C renal) was > 100 µM, the TGI (SN12C renal) was > 100 µM and the GI50 (SF-295 CNS) was > 100 µM. The TGI (SF-295 CNS) was > 100 µM, the GI50 (DLD-1 colon) was > 100 µM and the TGI (DLD-1 colon) was > 100 µM. For the same compound, the GI50 (KM12 colon) was > 100 µM, the TGI (KM12 colon) was > 100 µM and the GI50 (TK-10 renal) was > 100 µM. For the same compound, the TGI (TK-10 renal) was > 100 µM, the GI50 (UACC-257 melanoma) was > 100 µM and the TGI (UACC-257 melanoma) was > 100 µM. The GI50 (MOLT-4 leukemia) was > 100 µM, the TGI (MOLT-4 leukemia) was > 100 µM and the GI50 (KM20L2 colon) was > 100 µM. For the same compound, the TGI (KM20L2 colon) was > 100 µM, the GI50 (NCI-H23 lung) was > 100 µM and the TGI (NCI-H23 lung) was > 100 µM. The GI50 (HOP-92 NSCLC) was > 100 µM, the TGI (HOP-92 NSCLC) was > 100 µM and the GI50 (SNB-78 CNS) was > 100 µM. The TGI (SNB-78 CNS) was > 100 µM, the GI50 (SW-620 colon) was > 100 µM and the TGI (SW-620 colon) was > 100 µM. For the same compound, the GI50 (K-562 leukemia) was > 100 µM, the TGI (K-562 leukemia) was > 100 µM and the GI50 (U251 CNS) was > 100 µM. The TGI (U251 CNS) was > 100 µM, the GI50 (OVCAR-8 ovarian) was > 100 µM and the TGI (OVCAR-8 ovarian) was > 100 µM. The GI50 (SK-MEL-28 melanoma) was > 100 µM, the TGI (SK-MEL-28 melanoma) was > 100 µM and the GI50 (M14 melanoma) was > 100 µM. The TGI (M14 melanoma) was > 100 µM.
